# Like-named read-outs stand apart in the source and are kept apart here.
# Experiments:
# [1] = test system: Human promyelocytic leukemia HL-60 cells; assay: Cell differentiation of HL-60 cells, nitroblue tetrazolium (NBT) reduction; format: cell-based; settings: for EC50: Homo sapiens
# Protocol: Human promyelocytic leukemia HL-60 cells were cultured in RPMI-1640 medium supplemented by 10% heat-inactivated calf serum and 100 U/ml of penicillin plus 100 μg/ml of streptomycin. The flasks containing cells and medium were incubated in an incubator with 5% CO2 at 37° C. Log phase cells were seeded into the medium at a concentration of 1.2×10^5to 1.4×10^5 cells per ml and cultured in flasks containing 5 ml of medium. Each group consisted of three flasks. Different concentrations of coumarin-retinoids were added. At intervals following the addition of coumarin-retinoids to the cultures, a small portion of cells was removed and live cells were counted under a light microscope using a dye-exclusionmethod with trypan blue. Cell differentiation was judged in terms of morphology and nitroblue tetrazolium (NBT) reduction.
# For a determination of NBT reducing activity, a portion of the coumarin-retinoid-treated cells was removed at intervals following treatment and centrifuged. After centrifugation, 0.5 ml of 0.1% NBT (containing 100 ng TPA) was added to each tube. The contents of the test tubes were then incubated for 1 hour at 37° C. Cell smears were prepared from the cell sediment and stained using the Wright-Giemsa technique. For each smear prepared, 200 cells were isolated for examination under a light microscope with an oil immersion lens. Cells stained with blue-black granules were considered NBT-positive cells. The 50% differentiation or effective concentration (ED50 or EC50) is shown in terms of molar (M) concentration of the […] tested.
# (§1) The protocols of Examples 14 and 21 were used, for the NBT and MTT assays, respectively.
# [2] = test system: HL-60 cells; assay: MTT assay in HL-60 cells; format: cell-based, human; settings: Homo sapiens; for IC50: 120 h; for inhibition at 10 µM: 10^-5 M; for inhibition at 10 µM / inhibition at 1 µM / inhibition at 0.1 µM / inhibition at 0.01 µM: HL-60; for inhibition at 1 µM: 10^-6 M; for inhibition at 0.1 µM: 10^-7 M; for inhibition at 0.01 µM: 10^-8 M
# Protocol: Human cancer cell lines (KB, A2780, MCF-7, HL-60, A549) were used. For a monolayer culture, 0.5 ml of trypsin solution ([…]) was added to the flasks for digestion. Microtiter plates (96 well) were used for the cell culture and 200 μl of cell suspension (1200 tumor cells) were placed in each well and incubated at 37° C. for 24 hours. Following the addition of the test compound, the control and treated flasks were placed in a CO2 incubator for 5 day culture. For the MTT assay, 200 μl of MTT solution (5 mg in 10 ml of phosphate buffer) plus the medium were added and incubated for another 4 hours. Following incubation, the supernatant was discarded and 200 μl of DMSO was added to each well. With a mild agitation the OD values were determined by the MR 700 Elisa at 570 nm (reference wavelength was 450 nm). The ED50 of the compound and tumor cell survival rate [formula] as percent inhibition were calculated.
# as §1
# [3] = NBT reduction, 50% differentiation, HL-60 (Table 2), read-out: EC50
# [4] = HL-60 (Table 15), read-out: NBT ED50
# [5] = HL-60 (Table 15), read-out: MTT ED50
# [6] = MTT, HL-60 (Table 12), read-out: ED50 (the source's name)
smiles,measurement,setting,value
"CCOC(=O)c1cc(OC(=O)/C=C(C)/C=C/C=C(C)/C=C/C2=C(C)CCCC2(C)C)cc2oc(=O)c(C(C)=O)cc12 [Compound I-11, 3-acetyl-5-ethoxycarbyl-7-retinoyloxy-coumarin]",EC50,[1]; [3],3000 nM
CC(=O)c1cc2c(C)cc(OC(=O)/C=C(C)/C=C/C=C(C)/C=C/C3=C(C)CCCC3(C)C)cc2oc1=O [Compound I-2],NBT (+) %,"[1]; 10^-5 M, HL-60",38%
same,EC50,[1]; [3],2000 nM
CCOC(=O)c1cc2cc(Cl)c(OC(=O)/C=C(C)/C=C/C=C(C)/C=C/C3=C(C)CCCC3(C)C)cc2oc1=O [Compound I-18],EC50,[1]; [3],10000 nM
"CC1=C(/C=C/C(C)=C/C=C/C(C)=C/C(=O)Oc2cc(OC(=O)/C=C(C)/C=C/C=C(C)/C=C/C3=C(C)CCCC3(C)C)c3c(C)cc(=O)oc3c2)C(C)(C)CCC1 [Compound I-33, 4-methyl-5,7-diretinoyloxy-coumarin]",EC50,[1]; [4],> 10000 nM
same,IC50,[2]; [5],3.2 µM
CC1=C(/C=C/C(C)=C/C=C/C(C)=C/C(=O)Oc2cc(C(=O)O)c3cc(C(N)=O)c(=O)oc3c2)C(C)(C)CCC1 [Compound I-26],EC50,[1]; [3],80 nM
same,IC50,[2]; [6],0.9 µM
same,inhibition at 10 µM,[2]; MTT,68.7 ± 0.2%
same,inhibition at 1 µM,[2]; MTT,52.6 ± 0.5%
same,inhibition at 0.1 µM,[2]; MTT,43.8 ± 1.3%
same,inhibition at 0.01 µM,[2]; MTT,9.4 ± 3.7%
"CC1=C(/C=C/C(C)=C/C=C/C(C)=C/C(=O)Oc2cc(=O)oc3ccc(C)cc23)C(C)(C)CCC1 [Compound I-35, 4-retinoyloxy-6-methyl-coumarin]",EC50,[1]; [4],6700 nM
same,IC50,[2]; [5],2.6 µM
"CCc1cc2c(C)cc(=O)oc2cc1OC(=O)/C=C(C)/C=C/C=C(C)/C=C/C1=C(C)CCCC1(C)C [Compound I-31, 4-methyl-6-ethyl-7-retinoyloxy-coumarin]",IC50,[2]; [5],> 10 µM
CC(=O)c1cc2ccc(OC(=O)/C=C(C)/C=C/C=C(C)/C=C/C3=C(C)CCCC3(C)C)c(C)c2oc1=O [Compound I-3],EC50,[1]; [3],800 nM
CCOC(=O)c1cc2c(OC(=O)/C=C(C)/C=C/C=C(C)/C=C/C3=C(C)CCCC3(C)C)cc(OC(=O)/C=C(C)/C=C/C=C(C)/C=C/C3=C(C)CCCC3(C)C)cc2oc1=O [Compound I-21],EC50,[1]; [3],250 nM
same,IC50,[2]; [6],1 µM
same,inhibition at 10 µM,[2]; MTT,61.2 ± 2.4%
same,inhibition at 1 µM,[2]; MTT,49.9 ± 2.5%
same,inhibition at 0.1 µM,[2]; MTT,32.5 ± 1.1%
same,inhibition at 0.01 µM,[2]; MTT,21.8 ± 3.1%
"CC1=C(/C=C/C(C)=C/C=C/C(C)=C/C(=O)Oc2cc(=O)oc3ccc(C(C)(C)C)cc23)C(C)(C)CCC1 [Compound I-28, 4-retinoyloxy-6-t-butyl-coumarin]",IC50,[2]; [5],> 10 µM
"CC1=C(/C=C/C(C)=C/C=C/C(C)=C/C(=O)Oc2ccc3c(C)cc(=O)oc3c2OC(=O)/C=C(C)/C=C/C=C(C)/C=C/C2=C(C)CCCC2(C)C)C(C)(C)CCC1 [Compound I-36, 4-methyl-7,8-diretinoyloxy-coumarin]",EC50,[1]; [4],> 10000 nM
same,IC50,[2]; [5],3.2 µM
"CC(=O)c1cc2c(C(=O)O)cc(OC(=O)/C=C(C)/C=C/C=C(C)/C=C/C3=C(C)CCCC3(C)C)cc2oc1=O [Compound I-4, 3-acetyl-5-carboxy-7-retinoyloxy coumarin]",EC50,[1]; [3],70 nM
"CCCCCCc1cc2c(C)cc(=O)oc2cc1OC(=O)/C=C(C)/C=C/C=C(C)/C=C/C1=C(C)CCCC1(C)C [Compound I-34, 4-methyl-6-hexyl-7-retinoyloxy-coumar in]",IC50,[2]; [5],> 10 µM

# Source: patent US5716982A, “Retinoids and methods of use of same” (priority 1995, dated 1998)
